From the NIST ThermoML archive (doi:10.1016/j.jct.2019.04.010)
± gives the expanded uncertainty stated by the source.

Experiment: xn = mol fraction of the nth substance listed
Conditions: 100 kPa, Liquid; for viscosity: Concentric cylinders viscometry; for mass density: Vibrating tube method

CCCCn1cc[n+](C)c1.O=[N+]([O-])[O-] [1-butyl-3-methylimidazolium nitrate] + CC(C)O
Conditions	mass density, 293.15 K [kg/m3]	mass density, 298.15 K [kg/m3]	mass density, 303.15 K [kg/m3]	viscosity, 293.15 K [mPa·s]	viscosity, 298.15 K [mPa·s]	viscosity, 303.15 K [mPa·s]	viscosity, 308.15 K [mPa·s]
x1 = 0.0815	853.9 ± 1.8	849.9 ± 1.8	846 ± 1.8	4.18 ± 0.84	3.66 ± 0.73	3.29 ± 0.66	2.93 ± 0.59
x1 = 0.1596	906.3 ± 1.6	902.5 ± 1.6	898.7 ± 1.6	6.88 ± 1.4	5.95 ± 1.2	5.22 ± 1.1	4.55 ± 0.91
x1 = 0.2405	951.1 ± 1.4	947.4 ± 1.4	943.8 ± 1.4	10.99 ± 2.2	9.26 ± 1.9	8 ± 1.6	6.55 ± 1.3
x1 = 0.3495	1000.3 ± 1.3	996.7 ± 1.3	993.2 ± 1.3	18 ± 3.6	15.42 ± 3.1	12.83 ± 2.6	10.13 ± 2
x1 = 0.4405	1034 ± 1.2	1030.5 ± 1.2	1027.2 ± 1.2	26 ± 5.2	22 ± 4.4	17.76 ± 3.6	14.06 ± 2.8
x1 = 0.5607	1070.7 ± 1.2	1067.4 ± 1.2	1064.2 ± 1.2	39.8 ± 8	33.04 ± 6.6	26.4 ± 5.3	20.79 ± 4.2
x1 = 0.6506	1093.8 ± 1.2	1090.6 ± 1.2	1087.4 ± 1.2	53.28 ± 11	42.9 ± 8.6	34.49 ± 6.9	27.05 ± 5.4
x1 = 0.7413	1114.1 ± 1.2	1110.9 ± 1.2	1107.9 ± 1.2	69.94 ± 14	55.5 ± 11	45.29 ± 9.1	36.2 ± 7.2
x1 = 0.8515	1135 ± 1.3	1131.9 ± 1.3	1129 ± 1.3	105.6 ± 21	81.6 ± 16	63.3 ± 13	50.5 ± 10
x1 = 0.9396	1149.7 ± 1.4	1146.6 ± 1.4	1143.6 ± 1.4	157.7 ± 32	122.4 ± 25	90.3 ± 18	72.4 ± 15
x1 = 1	1158.3 ± 1.5	1155.2 ± 1.5	1152.3 ± 1.5	223.54 ± 45	168.97 ± 34	125.36 ± 25	96.74 ± 19
